# Assays:
# [1] = test system: human ovarian cancer cells; assay: Selective cancer cell-killing in ovarian cancer patient samples, cancer cells; type: cell-based; conditions: 24 hours; Calcein-AM; FIG. 9B
# Text: Evaluating selective cancer cell-killing in ovarian cancer patient samples. Cancer and non-cancer cells were isolated from primary tumors, intraperitoneal (IP) fluid, omental adipose tissue (common metastatic site), and blood from 6 ovarian cancer patients. The following cells were isolated and tested: cancer cells (digested tumor with depletion of fibroblasts, CD45+ cells, and […] cells), non-cancer immune cells (digested omental cells with depletion of neutrophils or CD45+ cells from tumor tissue), peripheral blood mononuclear cells (PBMCs; B cells, T cells, monocytes, and NK cells), fibroblasts (isolated from tumor samples using fibroblast isolation kit), and IP cells (composed of >90% CD45+ immune cells, including B, T, myeloid, NK cells). Isolated cells were plated and exposed to A2M:MutF, doxorubicin (standard of care chemotherapy), or oxaliplatin (standard of care chemotherapy) for 24 hours. Cell viability was assessed by Calcein-AM.
# Human fibrinogen = target: T1, Human fibrinogen (Homo sapiens, UniProt P02671+P02675+P02679); assay: Fibrinogen cleavage assay; type: biochemical; conditions: 1 hr at 37° C.; Western Blot; FIG. 6B
# T1 construct: purchased Sigma
# T1 sequence (P02671 20-629 limits assumed): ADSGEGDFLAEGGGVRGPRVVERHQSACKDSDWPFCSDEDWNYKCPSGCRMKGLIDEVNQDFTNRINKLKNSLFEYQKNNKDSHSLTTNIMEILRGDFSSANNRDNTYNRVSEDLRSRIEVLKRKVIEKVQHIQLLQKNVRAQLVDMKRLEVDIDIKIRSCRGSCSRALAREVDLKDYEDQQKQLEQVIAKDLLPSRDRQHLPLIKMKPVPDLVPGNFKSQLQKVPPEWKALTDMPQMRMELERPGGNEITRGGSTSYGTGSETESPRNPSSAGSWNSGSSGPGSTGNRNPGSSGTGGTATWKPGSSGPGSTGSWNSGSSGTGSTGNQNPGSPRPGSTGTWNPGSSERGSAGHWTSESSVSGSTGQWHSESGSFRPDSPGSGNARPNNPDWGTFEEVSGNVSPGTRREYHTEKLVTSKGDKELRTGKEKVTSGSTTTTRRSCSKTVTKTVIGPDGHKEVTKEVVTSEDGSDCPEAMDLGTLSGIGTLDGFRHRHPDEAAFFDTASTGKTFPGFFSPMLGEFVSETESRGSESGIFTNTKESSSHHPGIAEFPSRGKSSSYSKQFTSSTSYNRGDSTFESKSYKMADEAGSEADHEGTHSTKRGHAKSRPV
# T1 sequence (P02675 31-491): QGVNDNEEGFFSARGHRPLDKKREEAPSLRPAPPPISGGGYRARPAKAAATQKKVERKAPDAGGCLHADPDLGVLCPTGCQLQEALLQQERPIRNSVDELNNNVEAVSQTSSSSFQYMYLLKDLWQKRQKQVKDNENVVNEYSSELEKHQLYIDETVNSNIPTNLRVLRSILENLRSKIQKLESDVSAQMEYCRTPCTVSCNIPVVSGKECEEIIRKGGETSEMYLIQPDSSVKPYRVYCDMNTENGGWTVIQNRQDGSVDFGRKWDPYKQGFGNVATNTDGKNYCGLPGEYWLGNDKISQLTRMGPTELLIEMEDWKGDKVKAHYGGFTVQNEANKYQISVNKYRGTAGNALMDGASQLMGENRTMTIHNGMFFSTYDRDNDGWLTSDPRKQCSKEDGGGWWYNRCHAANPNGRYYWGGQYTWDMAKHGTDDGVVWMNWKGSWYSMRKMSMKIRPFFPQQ
# T1 sequence (P02679 27-453): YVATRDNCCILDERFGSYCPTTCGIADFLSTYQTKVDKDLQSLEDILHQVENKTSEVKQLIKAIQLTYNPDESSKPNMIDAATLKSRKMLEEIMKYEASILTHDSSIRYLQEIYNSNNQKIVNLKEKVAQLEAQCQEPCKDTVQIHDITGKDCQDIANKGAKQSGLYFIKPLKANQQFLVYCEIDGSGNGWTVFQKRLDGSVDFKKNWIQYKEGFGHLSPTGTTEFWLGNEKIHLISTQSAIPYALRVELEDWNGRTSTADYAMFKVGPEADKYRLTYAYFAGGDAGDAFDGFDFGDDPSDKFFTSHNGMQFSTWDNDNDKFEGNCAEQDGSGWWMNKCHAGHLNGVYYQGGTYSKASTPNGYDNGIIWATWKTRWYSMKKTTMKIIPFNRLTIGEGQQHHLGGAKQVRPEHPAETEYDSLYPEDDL
# Method: Fibrinogen cleavage assay. MutF was mixed with different concentrations of A2M to reach various molar ratios, followed by a 30-minute incubation at 37° C. in PBS. Human fibrinogen (Sigma) was incubated with pre-mixed A2M:MutF protein complexes at different molar ratios for 1 hr at 37° C. Samples containing 5 ug of fibrinogen were loaded on 4-15% gel and fibrinogen was detected by Western Blot with an anti-fibrinogen (cell signaling Technology). Gels were imaged by iBright 1500.
# [2] = Plasma Protection Assay (MutF activity on AAPV-AMC in plasma); type: biochemical; conditions: mouse plasma; MutF 400 nM; A2M:MutF 1:2; FIG. 3C
# Method: Plasma Protection Assay. MutF (400 nM) was mixed with 200 nM A2M to reach a 1:2 molar ratio (A2M:MutF), followed by 30 minutes incubation at 37° C. in PBS. A plasma protection assay was performed in 384-black well-coated plate by adding 10 μL of sample with either 10 μL of PBS or 10 μL of mouse plasma samples in duplicates. 20 μL of the substrate AAPV-AMC at a concentration of 100 μM was added. Kinetics were measured on Varioskan LUX: 380 nm ex/460 nm (5 nm bandwidth), 37° C., top, 100 msec, 2 min for 16 reads. Vo was calculated as activity measurement.
# [3] = Coagulation Assay (PT, PTT, fibrinogen in plasma after IV injection); type: in vivo, Mice; conditions: mouse plasma 5 min after IV injection of 480 ug
# Method: Coagulation Assay. Mice were injected with 200 μL of 480 ug of MutF or purified A2M:MutF protein complexes at a 1:2 molar ratio. Blood was collected in sodium citrate tubes and centrifuged at 1500×g for 15 minutes. 300 μl of plasma were frozen and shipped to IDEXX to be analyzed for Prothrombin time, Partial Thromboplastin time, and concentration of Fibrinogen.
# Elastin-F = assay: Elastin cleavage assay; type: biochemical; conditions: overnight at 37° C.; FIG. 6C
# Method: Elastin cleavage assay. MutF was mixed with different concentrations of A2M to reach various molar ratios, followed by a 30-minute incubation at 37° C. in PBS. Elastin-F (1:100) was incubated with pre-mixed A2M:MutF protein complexes overnight at 37° C., and the degraded fluorescent signal was measured in the supernatant.
Molecule,Killing of cancer cells from chemo-naïve vs chemo-treated patients [1],Fibrinogen cleavage (Human fibrinogen),MutF activity in plasma [2],Prothrombin time ([3]; FIG. 7A),Partial Thromboplastin time ([3]; FIG. 7B),Concentration of fibrinogen in plasma ([3]; FIG. 7C),Elastin cleavage (fluorescent signal) (Elastin-F)
"COc1cccc2c1C(=O)c1c(O)c3c(c(O)c1C2=O)C[C@@](O)(C(=O)CO)C[C@@H]3O[C@H]1C[C@H](N)[C@H](O)[C@H](C)O1 [doxorubicin, reference compound]",reduced killing of cancer cells isolated from chemo-treated relative to chemo-naïve patients,,,,,,
"O=C1[O][Pt]2([NH][C@@H]3CCCC[C@H]3[NH]2)[O]C1=O [oxaliplatin, reference compound]",reduced killing of cancer cells isolated from chemo-treated relative to chemo-naïve patients,,,,,,
"MutF: porcine pancreatic elastase (PPE) protein 'Mutant F', Q211F, SEQ ID NO: 5",,does cleave fibrinogen,plasma inhibits MutF activity,increases PT and PTT times,increases PT and PTT times,causes reductions in fibrinogen levels,does cleave elastin

# — US20260232818A1, “PHARMACEUTICAL COMPOSITIONS COMPRISING PROTEIN COMPLEXES” (Onchilles Pharma, Inc., priority 2023, published 2026)
